In PMC6198970, “Safety, efficacy, and dose response of the maturation inhibitor GSK3532795 (formerly known as BMS-955176) plus tenofovir/emtricitabine once daily in treatment-naive HIV-1-infected adults: Week 24 primary analysis from a randomized Phase IIb trial” (PLoS ONE, 2018):

How the values were obtained:
Type in all cases: in vivo, HIV-1-infected adults
HIV-1 [1] = assay: Phase IIb study 205891: plasma HIV-1 RNA response at Week 24 (FDA snapshot, observed); conditions: Week 24, mITT; GSK3532795: range across 60, 120, 180 mg arms; EFV 600 mg; each + TDF/FTC
Description: 205891 was a Phase IIb, randomized, active-controlled, double-blind trial performed at 58 sites in 12 countries across South America, North America, South Africa, and Europe. Participants were randomized 1:1:1:1 to one of four treatment arms; GSK3532795 at doses of 60 mg, 120 mg or 180 mg once daily (QD), and one reference arm with EFV at a dose of 600 mg QD, each given in combination with TDF/FTC 300/200 mg QD.
Participants attended study visits at screening, on Day 1, and once every 4 weeks from Week 4 to Week 24 (telephonic visits were conducted at Week 20). Participants were expected to continue treatment, then, through Week 96, with visit intervals every 8–12 weeks. A post-dose safety follow-up visit was also conducted 12 weeks after treatment discontinuation. Plasma HIV-1 RNA levels were quantified by the Abbott RealTime HIV-1 assay.
The FDA-defined snapshot algorithm was used for primary endpoint efficacy assessment, using the last plasma HIV-1 RNA value in the pre-defined Week 24 visit window (± 6 weeks) to determine response. The modified intent-to-treat (mITT) population consisted of participants who received at least one dose of GSK3532795 or EFV. […]

[2] = Adverse events through Week 24
Description: (§1) Physical examinations, measurement of vital signs, and clinical laboratory evaluations were performed at Weeks 4, 8, 12, 16 and 24, and participants were closely monitored for AEs and SAEs throughout. AEs were classified according to MedDRA version 19.0. The severity and relationship to study drug was assessed by the local investigator.

CD4+ T-cell count = assay: Change from baseline in CD4+ T-cell count; conditions: EFV arm; Week 24
Source text: The primary endpoint was determination of the proportion of participants with plasma HIV-1 RNA <40 copies/mL at Week 24 after treatment with GSK3532795 or efavirenz (EFV). Secondary endpoints included mean changes from baseline in CD4+ T-cell count and mean changes in the percentage of CD4+ T-cell count over time. Secondary safety endpoints included frequency of adverse events (AEs), serious AEs (SAEs), and AEs leading to discontinuation through Week 24. Further secondary endpoints included emergence of drug resistance. Exploratory endpoints included assessment of the impact of Gag polymorphisms on the efficacy of GSK3532795. […] In addition, though Gag A364 is essentially invariant across genotypes, it was included in the primary endpoint analysis since emergent resistance to GSK3532795 (both in vitro and in Phase IIa studies) mapped, in part, to the A364V change. Thus, our analysis at the Week 24 primary endpoint was limited to these four positions. Pharmacokinetic (PK) analyses were performed to evaluate treatment exposure and assess the dose proportionality of GSK3532795 when co-administered with tenofovir disoproxil fumarate (TDF)/emtricitabine (FTC).

HIV-1 [3] = assay: Protocol-defined virologic failure and drug resistance testing (GenoSure MG, PhenoSense); conditions: EFV arm; through Week 24
Source text: PDVF was defined as either: (1) confirmed HIV-1 RNA ≥40 copies/mL at any time after prior confirmed suppression to <40 copies/mL; or (2) a confirmed >1 log10 copies/mL above the nadir level. Genotypic information required for screening was generated using the GenoSure® MG assay; genotypic information and phenotypic observations during the treatment period were generated using the PhenoSense® combination resistance test.

[4] = Clinical laboratory evaluations
Description: as §1

[5] = GSK3532795: range across 60, 120, 180 mg arms, EFV 600 mg
[6] = GSK3532795 arms pooled, EFV 600 mg, abstract

Q: For O=C1Nc2ccc(Cl)cc2[C@@](C#CC2CC2)(C(F)(F)F)O1 [EFV, efavirenz, reference compound], which “Participants achieving HIV-1 RNA <40 copies/mL” value (HIV-1 [1]) is on record?
A: 77%

Q: And the “Mean time to onset of first diarrhea event” value ([2]; EFV arm)?
A: 73.0 days

Q: What about the “Mean duration of first diarrhea event” value ([2]; EFV arm (shortest)) of the same compound?
A: 35.8 days

Q: And the “Incidence of dizziness relative to GSK3532795” value ([2]; EFV arm vs GSK3532795 arms)?
A: ~10 fold

Q: What about the “SAE considered related to study drug” value ([2]; GSK3532795 120 mg (no action taken), EFV (led to discontinuation)) of the same compound?
A: increased hepatic enzyme

Q: And the “Grade 1–4-related abdominal pain” value [2, 5]?
A: 0%

Q: What about the “Grade 1–4-related diarrhea” value [2, 5] of the same compound?
A: 4%

Q: And the “Adverse events leading to discontinuation” value [2, 6]?
A: 17%

Q: And the Serious adverse events [2, 6]?
A: 9%

Q: What about the “Frequency of Grade 1–4-related AEs” value ([2]; GSK3532795 arms pooled, EFV 600 mg, through Week 24) of the same compound?
A: 60%

Q: And the “Mean change from baseline in CD4+ T-cell count (SD)” value (CD4+ T-cell count)?
A: 134.7 (SD 151.70) cells/μL

Q: What about the “Rate of protocol-defined virologic failure (PDVF)” value (HIV-1 [3]) of the same compound?
A: 2% (1/53)

Q: What about the “Mean increase in total cholesterol” value ([4]; EFV arm, baseline to Week 24) of the same compound?
A: 17.6 mg/dL

Q: And the “Mean increase in triglyceride levels” value ([4]; EFV arm, baseline to Week 24)?
A: 41.1 mg/dL

Q: What about the “Hepatic event attributed to EFV” value ([4]; one participant, discontinued) of the same compound?
A: several Grade 4 liver chemistry elevations
